From patent US20240174618A1, “SUBSTITUTED (2-HETEROARYLOXYPHENYL)SULFONATES, SALTS THEREOF AND THEIR USE AS HERBICIDAL AGENTS” (Bayer Aktiengesellschaft, priority 2021, published 2024)

How the values were obtained:
Type in all cases: in vivo
[1] = test system: Echinochloa crus-galli (ECHCG); test: B. Herbicidal post-emergence efficacy, ECHCG; conditions: 1280 g/ha, rated visually after about 3 weeks
Description: (§1) Seeds of mono- and dicotyledonous weed plants were placed in plastic pots in sandy loam soil (doubly sown with in each case one species of mono- or dicotyledonous weed plants per pot), covered with soil and cultivated in a greenhouse under controlled growth conditions. 2 to 3 weeks after sowing, the test plants were treated at the one-leaf stage. The compounds of the invention, formulated in the form of wettable powders (WP) or as emulsion concentrates (EC), were applied onto the green parts of the plants as aqueous suspension or emulsion with addition of 0.5% additive at a water application rate of 600 liters per hectare (converted). After the test plants had been kept in the greenhouse under optimum growth conditions for about 3 weeks, the activity of the preparations was rated visually in comparison to untreated controls.
(§2) For example, • 100% efficacy=plants have died, • 0% efficacy=like untreated control plants
(§3) Tables B1a to B12c below show the effects of selected inventive compounds of the general formula (I) according to table 1 on various harmful plants at an application rate corresponding to 1280 g/ha or less, which were obtained by the experimental procedure mentioned above.

[2] = test system: Digitaria sanguinalis (DIGSA); test: A. Herbicidal pre-emergence efficacy, DIGSA; conditions: scored visually after about 3 weeks vs untreated controls
Excerpt: (§4) Seeds of mono- and dicotyledonous weed plants were placed in plastic pots in sandy loam soil (doubly sown with one species each of mono- or dicotyledonous weed plants per pot) and covered with soil. The compounds of the invention, formulated in the form of wettable powders (WP) or as emulsion concentrates (EC), were then applied onto the surface of the covering soil as aqueous suspension or emulsion with addition of 0.5% additive at a water application rate of 600 liters per hectare (converted). After the treatment, the pots were placed in a greenhouse and kept under good growth conditions for the test plants. After about 3 weeks, the efficacy of the preparations was scored visually in comparison with untreated controls as percentages.
(§5) For example, • 100% efficacy=plants have died, • 0% efficacy=like untreated control plants.
(§6) Tables A1a to A12c below show the effects of selected compounds of the general formula (I) according to table 1 on various harmful plants at an application rate corresponding to 1280 g/ha or less, which were obtained by the experimental procedure mentioned above.

[3] = test system: Poa annua (POAAN); test: A. Herbicidal pre-emergence efficacy, POAAN
Excerpt: as §4, §5, §6

[4] = test system: Poa annua (POAAN); test: B. Herbicidal post-emergence efficacy, POAAN; conditions: 1280 g/ha
Description: as §1, §2, §3

[5] = test system: Setaria viridis (SETVI); test: A. Herbicidal pre-emergence efficacy, SETVI
Excerpt: as §4, §5, §6

[6] = test system: Amaranthus retroflexus (AMARE); test: B. Herbicidal post-emergence efficacy, AMARE
Description: as §1, §2, §3

[7] = test system: Amaranthus retroflexus (AMARE); test: A. Herbicidal pre-emergence efficacy, AMARE
Excerpt: as §4, §5, §6

[8] = test system: Kochia scoparia (KCHSC); test: A. Herbicidal pre-emergence efficacy, KCHSC; conditions: pre-emergence
Excerpt: as §4, §5, §6

[9] = test system: Abutilon theophrasti (ABUTH); test: A. Herbicidal pre-emergence efficacy, ABUTH; conditions: 1280 g/ha; scored visually after about 3 weeks vs untreated controls
Excerpt: as §4, §5, §6

[10] = test system: Veronica persica (VERPE); test: B. Herbicidal post-emergence efficacy, VERPE
Description: as §1, §2, §3

[11] = test system: Veronica persica (VERPE); test: A. Herbicidal pre-emergence efficacy, VERPE
Excerpt: as §4, §5, §6

[12] = test system: Stellaria media (STEME); test: B. Herbicidal post-emergence efficacy, STEME
Description: as §1, §2, §3

[13] = test system: Abutilon theophrasti (ABUTH); test: B. Herbicidal post-emergence efficacy, ABUTH; conditions: rated visually after about 3 weeks
Description: as §1, §2, §3

[14] = test system: Echinochloa crus-galli (ECHCG); test: A. Herbicidal pre-emergence efficacy, ECHCG; conditions: 1280 g/ha; scored visually after about 3 weeks vs untreated controls
Excerpt: as §4, §5, §6

[15] = test system: Digitaria sanguinalis (DIGSA); test: B. Herbicidal post-emergence efficacy, DIGSA; conditions: 1280 g/ha, rated visually after about 3 weeks
Description: as §1, §2, §3

[16] = test system: Kochia scoparia (KCHSC); test: B. Herbicidal post-emergence efficacy, KCHSC
Description: as §1, §2, §3

[17] = test system: Setaria viridis (SETVI); test: B. Herbicidal post-emergence efficacy, SETVI; conditions: 1280 g/ha
Description: as §1, §2, §3

[18] = test system: Stellaria media (STEME); test: A. Herbicidal pre-emergence efficacy, STEME
Excerpt: as §4, §5, §6

N#Cc1cccc(Oc2ncc(Cl)cn2)c1OS(=O)(=O)CCCCl [Example I-80]
Post-emergence efficacy against ECHCG in % [1]: 100% | Pre-emergence efficacy against DIGSA ([2]; 320 g/ha): 90% | Pre-emergence efficacy against DIGSA ([2]; 1280 g/ha): 100% | Pre-emergence efficacy against POAAN ([3]; dosage 320 g/ha): 90% | Pre-emergence efficacy against POAAN ([3]; dosage 1280 g/ha): 90% | Post-emergence efficacy against POAAN [4]: 90% | Pre-emergence efficacy against SETVI ([5]; dosage 320 g/ha): 90% | Pre-emergence efficacy against SETVI ([5]; dosage 1280 g/ha): 100% | Post-emergence efficacy against AMARE ([6]; 80 g/ha): 100% | Post-emergence efficacy against AMARE ([6]; 320 g/ha): 100% | Post-emergence efficacy against AMARE ([6]; 1280 g/ha): 100% | Pre-emergence efficacy against AMARE in % ([7]; 80 g/ha): 90% | Pre-emergence efficacy against AMARE in % ([7]; 320 g/ha): 90% | Pre-emergence efficacy against AMARE in % ([7]; 1280 g/ha): 100% | Pre-emergence efficacy against KCHSC ([8]; dosage 320 g/ha): 90% | Pre-emergence efficacy against KCHSC ([8]; dosage 1280 g/ha): 100% | Pre-emergence efficacy against ABUTH [9]: 90% | Post-emergence efficacy against VERPE ([10]; 80 g/ha): 90% | Post-emergence efficacy against VERPE ([10]; 320 g/ha): 90% | Post-emergence efficacy against VERPE ([10]; 1280 g/ha): 100% | Pre-emergence efficacy against VERPE in % ([11]; 320 g/ha): 90% | Pre-emergence efficacy against VERPE in % ([11]; 1280 g/ha): 100% | Post-emergence efficacy against STEME ([12]; 80 g/ha): 90% | Post-emergence efficacy against STEME ([12]; 320 g/ha): 100% | Post-emergence efficacy against STEME ([12]; 1280 g/ha): 100% | Post-emergence efficacy against ABUTH in % ([13]; 80 g/ha): 90% | Post-emergence efficacy against ABUTH in % ([13]; 320 g/ha): 90% | Post-emergence efficacy against ABUTH in % ([13]; 1280 g/ha): 100% | Pre-emergence efficacy against ECHCG [14]: 90% | Post-emergence efficacy against DIGSA in % [15]: 90% | Post-emergence efficacy against KCHSC in % ([16]; 320 g/ha, rated visually after about 3 weeks): 90% | Post-emergence efficacy against KCHSC ([16]; 1280 g/ha): 90% | Post-emergence efficacy against SETVI [17]: 90% | Pre-emergence efficacy against STEME ([18]; dosage 320 g/ha): 100% | Pre-emergence efficacy against STEME ([18]; dosage 1280 g/ha): 100%
